Among the data in patent publication US20260242419A1, “A CYCLIC PEPTIDE FOR TRAPPING INTERLEUKIN-1 BETA” (Merck Sharp & Dohme LLC, priority 2023, published 2026) are IC50 values, retold here.

This test concerns the target T1, IL-1β (Homo sapiens, UniProt P01584).
T1 construct: purchased BioLegend 579404
As to the kind of experiment: IL-6 assay in MRC5 cells: inhibition of IL-1β induced IL-6 secretion (AlphaLISA). To be noted: inhibition of IL-1β induced IL-6 secretion in MRC5 cells; read-out: MRC5 IC50. It counts as cell-based. The procedure: Procedure for IL-6 Assay in MRC5 Cells
The inhibition of IL-1β induced IL-6 secretion was evaluated in MRC5 cells. Recombinant human IL-1β (BioLegend 579404) at 2λ EC80 concentration was prepared in seeding medium. EMEM (ATCC 30-2003) with 0.025% BSA (Sigma A9576), 1×penicillin/streptomycin (Gibco 15070-063), 1×NEAA (Gibco 11140-050), 1×GlutaMax (Gibco 35050-061), and 1×sodium pyruvate (Gibco 11360-070), 20 μL of IL-1β was added to a 384-well collagen-coated plate (Corning 354664) and pre-incubated at ambient temperature for 1 hour with 200 nL of compound dispensed using an ECHO 555 liquid handler. Human lung fibroblast MRC5 cells (ATCC CCL-171) were added at a density of 3000 cells/20 μL per well. The cells were prepared by passaging three times in growth medium, EMEM (ATCC 30-2003) with 10% fetal bovine serum (Gibco 16140-071), 1×penicillin/streptomycin (Gibco 15070-063), 1×NEAA (Gibco 11140-050), 1×GlutaMax (Gibco 35050-061), and 1×sodium pyruvate (Gibco 11360-070) in collagen-coated T175 flasks (Greiner 661950) and harvested in seeding medium after 5 minutes of 0.25% trypsin-EDTA (Gibco 25200-056) digestion. The 384-well collagen-coated plate, containing a final volume of 40 μL, was incubated at 37° C., 5% CO2 overnight. 5 μL of the conditioned medium was transferred to a 384-well AlphaLISA plate (PerkinElmer 6005350) for detection of IL-6 using the human AlphaLISA IL-6 kit (PerkinElmer AL223F) as per the manufacturer's protocol. 20 μL of the acceptor bead/biotinylated antibody mix was added to the 384-well AlphaLISA plate and incubated for 1 hour at ambient temperature. The donor bead mix was protected from light and 25 μL was added to the plate and incubated for 30 minutes at ambient temperature. The AlphaLISA plate was read on an EnVision multimode plate reader (Perkin Elmer model 2104) using the AlphaScreen setting (laser exc at 680 nm and emis at […]). Dose response curves and IC50 values were analyzed using a 4-parameter logistic equation in Spotfire software (Tibco, Palo Alto, CA).
On the technique in general: In Alpha technology, singlet oxygen from a donor bead excites a nearby acceptor bead.

Usually IC50 stands for the concentration that gives 50% inhibition.

Starred links: 1 amine or outer side, 2 acyl side, 3 side chain; linkers in the order of their positions; H or OH if unused. Non-standard residues stand in square brackets, D forms with d. Residues, ends and D or L forms follow the SMILES beside them. Phe(4-(5-CO2H-2-pyrimidyl)) = N[C@@H](Cc1ccc(-c2ncc(C(=O)O)cn2)cc1)C(=O)O; Phe(4-(4-Ac-piperazinyl)) = CC(=O)N1CCN(c2ccc(C[C@H](N)C(=O)O)cc2)CC1; Trp(βS-Me,4-F) = C[C@@H](c1c[nH]c2cccc(F)c12)[C@H](N)C(=O)O; Bip(4'-COOH) = N[C@@H](Cc1ccc(-c2ccc(C(=O)O)cc2)cc1)C(=O)O; X37 = CC(=O)N1CCN(c2ccc(C[C@H](N[*:1])C(=O)[*:2])cn2)CC1; dPro(4R-Bzl(4-F)) = O=C(O)[C@H]1C[C@@H](Cc2ccc(F)cc2)CN1; X5 = O=C([C@H]1C[C@@H](Cc2ccccc2)CN1[*:1])[*:2]; Ala(pyrimidin-5-yl) = N[C@@H](Cc1cncnc1)C(=O)O; Phe(4-COOH) = N[C@@H](Cc1ccc(C(=O)O)cc1)C(=O)O; Pro(cis-4-F) = O=C(O)[C@@H]1C[C@H](F)CN1; 2Pal = N[C@@H](Cc1ccccn1)C(=O)O; 3Pal = N[C@@H](Cc1cccnc1)C(=O)O; 4Pal = N[C@@H](Cc1ccncc1)C(=O)O; Dab = NCC[C@H](N)C(=O)O; Aib = CC(C)(N)C(=O)O

T1 sequence (P01584 117-269): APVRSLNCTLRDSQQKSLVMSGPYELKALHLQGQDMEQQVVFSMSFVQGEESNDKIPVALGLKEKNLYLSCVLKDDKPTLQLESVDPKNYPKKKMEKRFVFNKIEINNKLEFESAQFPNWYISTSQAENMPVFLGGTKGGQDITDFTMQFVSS

In the case of `C[C@@H](c1c[nH]c2cccc(F)c12)[C@@H]1NC(=O)[C@@H]2C[C@H](F)CN2C(=O)CNC(=O)[C@H](Cc2ccc(C(=O)O)cc2)NC(=O)[C@H](Cc2ccncc2)NC(=O)[C@H](Cc2ccc(-c3ccc(C(=O)O)cc3)cc2)NC(=O)[C@H]2C[C@@H](Cc3ccccc3)CN2C(=O)CNC(=O)[C@H](CCN)NC(=O)[C@H](CCC(N)=O)NC(=O)[C@H](Cc2cncnc2)NC(=O)C(C)(C)NC(=O)[C@H](Cc2c[nH]c3ccccc23)NC(=O)[C@H](CCC(=O)O)NC(=O)C(C)(C)NC1=O` [Example 29] (cyclo([Bip(4'-COOH)][4Pal][Phe(4-COOH)]G[Pro(cis-4-F)][Trp(βS-Me,4-F)][Aib]EW[Aib][Ala(pyrimidin-5-yl)]Q[Dab]G[X5])), the 50% inhibitory concentration (IC50) amounted to 0.019 nM. `C[C@@H](c1c[nH]c2cccc(F)c12)[C@@H]1NC(=O)[C@@H]2C[C@H](F)CN2C(=O)CNC(=O)[C@H](Cc2ccc(C(=O)O)cc2)NC(=O)[C@H](Cc2ccncc2)NC(=O)[C@H](Cc2ccc(-c3ccc(C(=O)O)cc3)cc2)NC(=O)[C@H]2C[C@@H](Cc3ccccc3)CN2C(=O)CNC(=O)[C@H](CO)NC(=O)[C@H](CCC(N)=O)NC(=O)[C@H](Cc2cncnc2)NC(=O)C(C)(C)NC(=O)[C@H](Cc2c[nH]c3ccccc23)NC(=O)[C@H](CCC(=O)O)NC(=O)C(C)(C)NC1=O` [Example 30] (cyclo([Bip(4'-COOH)][4Pal][Phe(4-COOH)]G[Pro(cis-4-F)][Trp(βS-Me,4-F)][Aib]EW[Aib][Ala(pyrimidin-5-yl)]QSG[X5])): the IC50 amounted to 0.026 nM.

`C[C@@H](c1c[nH]c2cccc(F)c12)[C@@H]1NC(=O)[C@@H]2C[C@H](F)CN2C(=O)CNC(=O)[C@H](Cc2ccc(C(=O)O)cc2)NC(=O)[C@H](Cc2ccncc2)NC(=O)[C@H](Cc2ccc(-c3ccc(C(=O)O)cc3)cc2)NC(=O)[C@H]2C[C@@H](Cc3ccccc3)CN2C(=O)CNC(=O)[C@H](CCN)NC(=O)[C@H](CCC(N)=O)NC(=O)[C@H](Cc2cncnc2)NC(=O)C(C)(C)NC(=O)[C@H](Cc2c[nH]c3ccccc23)NC(=O)[C@H](CCC(=O)O)NC(=O)C(C)(C)NC1=O` [Example 31] (cyclo([Bip(4'-COOH)][4Pal][Phe(4-COOH)]G[Pro(cis-4-F)][Trp(βS-Me,4-F)][Aib]EW[Aib][Ala(pyrimidin-5-yl)]Q[Dab]G[X5])): the IC50 stood at 0.024 nM. With `C[C@@H](c1c[nH]c2cccc(F)c12)[C@@H]1NC(=O)[C@@H]2C[C@H](F)CN2C(=O)CNC(=O)[C@H](Cc2ccc(C(=O)O)cc2)NC(=O)[C@H](Cc2ccncc2)NC(=O)[C@H](Cc2ccc(-c3ccc(C(=O)O)cc3)cc2)NC(=O)[C@H]2C[C@@H](Cc3ccc(F)cc3)CN2C(=O)CNC(=O)[C@H](CO)NC(=O)[C@H](CCC(N)=O)NC(=O)[C@H](CCCNC(=N)N)NC(=O)C(C)(C)NC(=O)[C@H](Cc2c[nH]c3ccccc23)NC(=O)[C@H](CCC(=O)O)NC(=O)C(C)(C)NC1=O` [Example 32] (cyclo([Bip(4'-COOH)][4Pal][Phe(4-COOH)]G[Pro(cis-4-F)][Trp(βS-Me,4-F)][Aib]EW[Aib]RQSG[dPro(4R-Bzl(4-F))])), the IC50 was 0.049 nM. For `C[C@@H](c1c[nH]c2cccc(F)c12)[C@@H]1NC(=O)[C@@H]2C[C@H](F)CN2C(=O)CNC(=O)[C@H](Cc2ccc(C(=O)O)cc2)NC(=O)[C@H](Cc2ccncc2)NC(=O)[C@H](Cc2ccc(-c3ccc(C(=O)O)cc3)cc2)NC(=O)[C@H]2C[C@@H](Cc3ccc(F)cc3)CN2C(=O)CNC(=O)[C@H](CCN)NC(=O)[C@H](CCC(N)=O)NC(=O)[C@H](CCCNC(=N)N)NC(=O)C(C)(C)NC(=O)[C@H](Cc2c[nH]c3ccccc23)NC(=O)[C@H](CCC(=O)O)NC(=O)C(C)(C)NC1=O` [Example 33] (cyclo([Bip(4'-COOH)][4Pal][Phe(4-COOH)]G[Pro(cis-4-F)][Trp(βS-Me,4-F)][Aib]EW[Aib]RQ[Dab]G[dPro(4R-Bzl(4-F))])) the value was 0.033 nM; for `C[C@@H](c1c[nH]c2cccc(F)c12)[C@@H]1NC(=O)[C@@H]2C[C@H](F)CN2C(=O)CNC(=O)[C@H](Cc2ccc(C(=O)O)cc2)NC(=O)[C@H](Cc2ccncc2)NC(=O)[C@H](Cc2ccc(-c3ccc(C(=O)O)cc3)cc2)NC(=O)[C@H]2C[C@@H](Cc3ccc(F)cc3)CN2C(=O)CNC(=O)[C@H](CO)NC(=O)[C@H](CCC(N)=O)NC(=O)[C@H](Cc2cccnc2)NC(=O)C(C)(C)NC(=O)[C@H](Cc2c[nH]c3ccccc23)NC(=O)[C@H](CCC(=O)O)NC(=O)C(C)(C)NC1=O` [Example 34] (cyclo([Bip(4'-COOH)][4Pal][Phe(4-COOH)]G[Pro(cis-4-F)][Trp(βS-Me,4-F)][Aib]EW[Aib][3Pal]QSG[dPro(4R-Bzl(4-F))])), 0.032 nM; for `C[C@@H](c1c[nH]c2cccc(F)c12)[C@@H]1NC(=O)[C@@H]2C[C@H](F)CN2C(=O)CNC(=O)[C@H](Cc2ccc(C(=O)O)cc2)NC(=O)[C@H](Cc2ccncc2)NC(=O)[C@H](Cc2ccc(-c3ccc(C(=O)O)cc3)cc2)NC(=O)[C@H]2C[C@@H](Cc3ccc(F)cc3)CN2C(=O)CNC(=O)[C@H](CCCNC(=N)N)NC(=O)[C@H](CCC(N)=O)NC(=O)[C@H](Cc2ccccc2)NC(=O)C(C)(C)NC(=O)[C@H](Cc2c[nH]c3ccccc23)NC(=O)[C@H](CCC(=O)O)NC(=O)C(C)(C)NC1=O` [Example 35] (cyclo([Bip(4'-COOH)][4Pal][Phe(4-COOH)]G[Pro(cis-4-F)][Trp(βS-Me,4-F)][Aib]EW[Aib]FQRG[dPro(4R-Bzl(4-F))])), 0.049 nM. The value for `C[C@@H](c1c[nH]c2cccc(F)c12)[C@@H]1NC(=O)[C@@H]2C[C@H](F)CN2C(=O)CNC(=O)[C@H](Cc2ccc(C(=O)O)cc2)NC(=O)[C@H](Cc2ccncc2)NC(=O)[C@H](Cc2ccc(-c3ccc(C(=O)O)cc3)cc2)NC(=O)[C@H]2C[C@@H](Cc3ccc(F)cc3)CN2C(=O)CNC(=O)[C@H](CO)NC(=O)[C@H](CCC(N)=O)NC(=O)[C@H](Cc2ccccn2)NC(=O)C(C)(C)NC(=O)[C@H](Cc2c[nH]c3ccccc23)NC(=O)[C@H](CCC(=O)O)NC(=O)C(C)(C)NC1=O` [Example 36] (cyclo([Bip(4'-COOH)][4Pal][Phe(4-COOH)]G[Pro(cis-4-F)][Trp(βS-Me,4-F)][Aib]EW[Aib][2Pal]QSG[dPro(4R-Bzl(4-F))])) was 0.054 nM. The value for `CC(=O)N1CCN(c2ccc(C[C@@H]3NC(=O)[C@H]4C[C@@H](Cc5ccc(F)cc5)CN4C(=O)CNC(=O)[C@H](CCN)NC(=O)[C@H](CCC(N)=O)NC(=O)[C@H](Cc4cncnc4)NC(=O)C(C)(C)NC(=O)[C@H](Cc4c[nH]c5ccccc45)NC(=O)[C@H](CCC(=O)O)NC(=O)C(C)(C)NC(=O)[C@H]([C@@H](C)c4c[nH]c5cccc(F)c45)NC(=O)[C@@H]4C[C@H](F)CN4C(=O)CNC(=O)[C@H](Cc4ccc(C(=O)O)cc4)NC(=O)[C@H](Cc4ccncc4)NC3=O)cc2)CC1` [Example 37] (cyclo([Phe(4-(4-Ac-piperazinyl))][4Pal][Phe(4-COOH)]G[Pro(cis-4-F)][Trp(βS-Me,4-F)][Aib]EW[Aib][Ala(pyrimidin-5-yl)]Q[Dab]G[dPro(4R-Bzl(4-F))])) was 0.033 nM. For the molecule `C[C@@H](c1c[nH]c2cccc(F)c12)[C@@H]1NC(=O)[C@@H]2C[C@H](F)CN2C(=O)CNC(=O)[C@H](Cc2ccc(C(=O)O)cc2)NC(=O)[C@H](Cc2ccncc2)NC(=O)[C@H](Cc2ccc(-c3ncc(C(=O)O)cn3)cc2)NC(=O)[C@H]2C[C@@H](Cc3ccc(F)cc3)CN2C(=O)CNC(=O)[C@H](CCN)NC(=O)[C@H](CCC(N)=O)NC(=O)[C@H](Cc2cncnc2)NC(=O)C(C)(C)NC(=O)[C@H](Cc2c[nH]c3ccccc23)NC(=O)[C@H](CCC(=O)O)NC(=O)C(C)(C)NC1=O` [Example 38] (cyclo([Phe(4-(5-CO2H-2-pyrimidyl))][4Pal][Phe(4-COOH)]G[Pro(cis-4-F)][Trp(βS-Me,4-F)][Aib]EW[Aib][Ala(pyrimidin-5-yl)]Q[Dab]G[dPro(4R-Bzl(4-F))])), the IC50 stood at 0.041 nM.

Consider `CC(=O)N1CCN(c2ccc(C[C@@H]3NC(=O)[C@H]4C[C@@H](Cc5ccc(F)cc5)CN4C(=O)CNC(=O)[C@H](CCN)NC(=O)[C@H](CCC(N)=O)NC(=O)[C@H](Cc4cncnc4)NC(=O)C(C)(C)NC(=O)[C@H](Cc4c[nH]c5ccccc45)NC(=O)[C@H](CCC(=O)O)NC(=O)C(C)(C)NC(=O)[C@H]([C@@H](C)c4c[nH]c5cccc(F)c45)NC(=O)[C@@H]4C[C@H](F)CN4C(=O)CNC(=O)[C@H](Cc4ccc(C(=O)O)cc4)NC(=O)[C@H](Cc4ccncc4)NC3=O)cn2)CC1` [Example 39] (cyclo([X37][4Pal][Phe(4-COOH)]G[Pro(cis-4-F)][Trp(βS-Me,4-F)][Aib]EW[Aib][Ala(pyrimidin-5-yl)]Q[Dab]G[dPro(4R-Bzl(4-F))])), for which the IC50 was 0.063 nM.
